Source: paper PMC10671074, “Tumor Regression upon Intratumoral and Subcutaneous Dosing of the STING Agonist ALG-031048 in Mouse Efficacy Models” (International Journal of Molecular Sciences, 2023)
Like-named read-outs stand apart in the source and are kept apart here. Marks after values point to notes of the source that are not given here.

Key:
[1] = test system: HEK 293 reporter cells; assay: Cell viability of HEK 293 reporter cells (CellTiter-Glo); conditions: concentrations up to 1000 nM
Protocol: Assays were set up after allowing cells to adhere for 48 h. Compounds dissolved in water were serially diluted in dosing buffer containing 10 µg/mL of digitonin (MP Biomedicals, Solon, OH, USA). Media were aspirated from the cells, and 50 µL of buffer with compound was added in triplicate. […] The next day, 20 µL of media was transferred to two new plates, and either 50 µL of QuantiLuc™ (Invivogen) to measure IFN-β expression or 80 µL of QuantiBlue™ (Invivogen) to measure IRF activity were added. […] An aliquot of 100 µL of CellTiter-Glo® (Promega, Madison, WI, USA) was added to the original plate still containing the cells, and luminescence was determined to measure viability. All readouts were measured on an Envision plate reader from Perkin Elmer. Data were analyzed using GraphPad™ Prism’s version 8.0 [Agonist] vs. response—variable slope (four parameters) model.
with increasing concentrations of the STING agonists or IFN‐β. After 24 hours, IRF reporter activity

[2] = test system: primary human immature dendritic cells; assay: Cytokine release from immature dendritic cells; assay type: cell-based
Protocol: The iMDDCs harvested on Day 5 (25,000 cells/well) after differentiation from normal human CD14+ CD16− monocytes were stimulated with STING agonists for 24–48 h. An aliquot of iMDDCs was also cultured in maturation media for 24–48 h and used as a control containing RPMI 1640, 10% FBS, 2 mM L-glutamine, and human TNF-α (6000 IU/mL, Miltenyi Biotec). The supernatant from the plate was frozen to assess cytokine production, and cells were analyzed via flow cytometry.
CD11c+ monocyte‐derived dendritic cells. E: Live cells were selected based on live/dead staining
and cell size. F: Dot plot of size SSC‐A versus SSC‐H for doublet exclusion, gating on singlet cells.
G: Dot plot of CD209 vs CD11c to select CD209+CD11+ high monocyte‐derived dendritic cells.
Figure S4. Increased release of cytokines from iDCs after stimulation for 24 hours with 50 μ M of the […]

[3] = test system: MC38-hPD-L1 tumors; assay: MC38-hPD-L1 mouse colon carcinoma model; assay type: in vivo; conditions: 0.5 mg/kg SC, QW (2×)
Text: Female C57/BL6 mice (Shanghai Lingchang Biotechnology Co., Ltd., Shanghai, China) were 5 to 8 weeks old with a body weight > 16 g at the time of inoculation. Animals were housed and fed as described above.
After inoculation with tumor cells, the animals were checked daily for morbidity and mortality. During routine monitoring, the animals were checked for any effects of tumor growth or test articles on behavior such as mobility, food and water consumption, body weight gain/loss (body weights were measured twice per week after randomization), eye/hair matting, and any other abnormalities. Tumor volumes were measured and calculated as described above.
Each group consisted of 10 animals. The control group was administered 5 mg/kg isotype control antibody in a volume of 10 μL/g of IP, BIW for 2.5 weeks, 5 doses total. The atezolizumab-treated group was administered 5 mg/kg in a volume of 10 μL/g of IP, BIW for 2.5 weeks, 5 doses total. […] Dosing started when average tumor volumes were 70 mm^3.

[4] = Plasma stability, mouse; assay type: in vitro ADME; conditions: 37 °C, read-out: Plasma t½, Mouse
Protocol: (§1) The plasma stability assay was carried out on 96-well microtiter plates. The test compounds at 5 µM and the reference compound (propantheline) at 1 µM final concentration were incubated separately at 37 °C with mouse or human plasma for 0, 30, 60, and 240 min. At the end of each incubation time point, 300 μL of the quenching solution (50% acetonitrile, 50% methanol, and 0.05% formic acid) containing the internal standard was added to each well. The incubation plates were sealed, vortexed, and centrifuged at 4 °C for 15 min at 4000 rpm. The supernatant was transferred to fresh plates for LC/MS/MS analysis of the test compounds. The peak area ratios of each test compound over the internal standard were plotted against incubation time, and the t½ was calculated from the curve assuming first-order kinetics.

[5] = test system: subcutaneous CT26 tumors; conditions: for Delay of tumor growth compared with vehicle / Delayed Response (TV > 10 and <2000 mm^3) / Treatment Failure (TV > 2000 mm^3) / Complete Response (TV < 10 mm^3) / Median Time to Endpoint: 3 × q3d; for Median Time to Endpoint: vehicle 17.0
Protocol: Each mouse was inoculated subcutaneously in the right flank with 3 × 10^5 CT26 cells (in 0.1 mL PBS) for tumor development.
PBS was used as the vehicle control. […] Vehicles and test compounds were administered IT q3d × 3 in a volume of 0.05 mL. SC administration was performed between the shoulder blades at a dosing volume of 10 mL/kg. Tumors were measured twice a week in two dimensions using calipers, and volume was calculated using Formula (1):Tumor Volume (mm^3) = 0.5 (w^2 × l)(1)
Here, w = width and l = length, in mm, of a tumor.
Tumor weight was estimated with the assumption that 1 mg is equivalent to 1 mm^3 of tumor volume.
Animals were euthanized when (1) their tumor reached the endpoint volume of 2000 mm^3, (2) their body weight loss exceeded 30%, or (3) on the last day of the study, whichever came first. The TTE for analysis was calculated for each mouse by the following Equation (2):TTE = (log10 (endpoint volume) − b)/m(2)
TTE is expressed in days, endpoint volume is expressed in mm^3, b is the intercept, and m is the slope of the line obtained via linear regression of a log-transformed tumor growth data set. […] Animals were weighed on Days 1–5, then twice weekly for the duration of the study.

[6] = test system: THP-1 cells (STING isoform HAQ); assay: THP-1 cytokine (IP-10) release assay; assay type: cell-based, human; conditions: overnight incubation, THP-1 (STING HAQ)
Protocol: THP-1 cells (American Type Culture Collection, Manassas, VA, USA) were maintained in maintenance media consisting of RPMI-1640, 1% Pen-Strep, 1% NEAA, 1% Glutagro™, 1% HEPES (all Corning), and 10% FBS (Sigma-Aldrich). On the day of dosing, cells were pelleted and resuspended in fresh media to a density of 1.6 × 10^6 cells/mL. An aliquot of […] was added to each well of a 96-well U-bottom plate for a total of 1.0 × 10^5 cells per well, and the final volume was adjusted to 150 µL using fresh media. Compound dilutions were prepared in maintenance media, and 50 µL of diluted compound were added to wells in duplicate. Cells were incubated with the compound overnight at 37 °C. The next day, plates were centrifuged, and the supernatant was collected in a 96-well flat-bottom plate. Human IP-10 was detected using the ProQuantum Immunoassay kit (Thermo Fisher Scientific, Waltham, MA, USA). Data were analyzed using a standard curve and reported as fold-increase over background. Graphs were generated using GraphPad™ Prism version 8.0.

[7] = Plasma stability, human; assay type: in vitro ADME; conditions: 37 °C, read-out: Plasma t½, Human
Protocol: as §1

[8] = test system: plasma cytokines; assay: Plasma cytokine levels in Hepa1–6 tumor-bearing mice; assay type: in vivo, mouse; conditions: Hepa1–6, 6 hours after the first dose
Protocol: Figure S6. A: Tumor regression in Hepa1‐6 tumor‐bearing […] mice upon IT treatment with three doses of 25 μg (light blue) or 100 μ g ALG‐031048 (dark blue), in comparison to treatment with 10 mg/kg anti‐PD‐1 antibody twice per week, 6 doses total (red). Vehicle‐treated animals are shown in black; shown are the mean tumor volumes ± standard deviation for each group of 10 animals.
Irregular, crater‐shaped tumors prevented accurate tumor volume measurement between Days 8‐
25. Treatment started when tumors reached an average volume of 98 mm3. Statistical analysis pro‐ vided in Table S4. B: Tumor weight for each group at the end of the study. Statistical analysis pro‐ vided in Table S5. C: Plasma cytokine levels 6 hours after the first dose. Each symbol represents one animal as well as the mean of the group (n=10). Unpaired t‐test was used to compare different groups: all groups for al l cytokines were statistically significant from each other with P‐values of < 0.0001 with the following exceptions: vehicle vs anti‐PD‐1 were non‐significant (all cytokines); the […]

[9] = Table 2 study, 25 μg IT, n = 10
[10] = Table 2 study, 100 μg IT, n = 10
[11] = Table 3/4 study, 25 μg IT, n = 10

**Q.** With CO[C@H]1[C@H]2OP(=O)(O)OC[C@@]34C[C@@H]3[C@@H](n3cnc5c(N)ncnc53)[C@H](O)[C@@H]4O[P@](=O)(S)OC[C@H]1O[C@H]2n1cnc2c(=O)[nH]c(N)nc21 [ALG-031048] as the molecule, how does the “Cell viability of HEK 293 reporter cells” value [1] read?
**A.** did not cause any loss of cell viability

**Q.** What about the “IFN-γ and IL-6 release from iDCs” value ([2]; 24 h time point) of the same molecule?
**A.** either no increase or only a minimal increase

**Q.** What about the “Cytokine release from iDCs” value ([2]; treatment for 24 h, 50 μM (Figure S4)) of the same molecule?
**A.** release of key cytokines IFN-β, IP-10, MIP-1α, MCP-1, and TNF-α

**Q.** What about the “Tumor Reduction vs. Group 1 (vehicle)” value ([3]; Day 11) of the same molecule?
**A.** 40.3%

**Q.** And the “TV on Day 11 (Median)” value ([3]; n = 10, vehicle 2268)?
**A.** 1353 mm^3

**Q.** And the half-life at 5 µM [4]?
**A.** > 1 h

**Q.** What about the “Delay of tumor growth compared with vehicle” value ([5]; CT26, 1 mg/kg SC) of the same molecule?
**A.** 4.0 days

**Q.** What about the “Delay of tumor growth compared with vehicle” value ([5]; CT26, 4 mg/kg SC) of the same molecule?
**A.** 21.0 days

**Q.** What about the “Time mice remained tumor-free after the last dose” value ([5]; CT26, longest observation in any study) of the same molecule?
**A.** approximately 2.5 months

**Q.** And the “Complete tumor suppression, initial CT26 tumor” value ([5]; Figure 5B study, three IT doses of 100 μg)?
**A.** 100%

**Q.** And the “Delayed Response (TV > 10 and <2000 mm^3)” value [5, 9]?
**A.** 10% ^c

**Q.** And the “Treatment Failure (TV > 2000 mm^3)” value [5, 9]?
**A.** 44% ^c

**Q.** What about the “Delayed Response (TV > 10 and <2000 mm^3)” value [5, 10] of the same molecule?
**A.** 0%

**Q.** What about the “Treatment Failure (TV > 2000 mm^3)” value [5, 10] of the same molecule?
**A.** 10%

**Q.** What about the “Complete Response (TV < 10 mm^3)” value [5, 11] of the same molecule?
**A.** 0%

**Q.** What about the “Delayed Response (TV > 10 and <2000 mm^3)” value [5, 11] of the same molecule?
**A.** 0%

**Q.** What about the “Treatment Failure (TV > 2000 mm^3)” value [5, 11] of the same molecule?
**A.** 100%

**Q.** What about the “TV at end of study of animal with delayed response” value ([5]; Table 4 study, 100 μg IT) of the same molecule?
**A.** 18 mm^3

**Q.** And the “Delayed Response (TV > 10 and <2000 mm^3)” value ([5]; Table 4 study, 100 μg IT)?
**A.** 10% ^b

**Q.** And the “Treatment Failure (TV > 2000 mm^3)” value ([5]; Table 4 study, 100 μg IT)?
**A.** 50%

**Q.** What about the “Complete Response (TV < 10 mm^3)” value ([5]; Table 4 study, 100 μg IT, n = 10) of the same molecule?
**A.** 40%

**Q.** What about the “Median Time to Endpoint” value ([5]; Table 4 study, 100 μg IT) of the same molecule?
**A.** 38.0 days

**Q.** What about the “Delayed Response (TV > 10 and <2000 mm^3)” value ([5]; Table 4 study, 1 mg/kg SC) of the same molecule?
**A.** 0%

**Q.** And the “Treatment Failure (TV > 2000 mm^3)” value ([5]; Table 4 study, 1 mg/kg SC)?
**A.** 100%

**Q.** And the “Complete Response (TV < 10 mm^3)” value ([5]; Table 4 study, 1 mg/kg SC, n = 10)?
**A.** 0%

**Q.** What about the “Median Time to Endpoint” value ([5]; Table 4 study, 1 mg/kg SC) of the same molecule?
**A.** 21.0 days

**Q.** What about the “TV at end of study of animal with delayed response” value ([5]; Table 4 study, 4 mg/kg SC) of the same molecule?
**A.** 1568 mm^3

**Q.** And the “Delayed Response (TV > 10 and <2000 mm^3)” value ([5]; Table 4 study, 4 mg/kg SC)?
**A.** 10% ^a

**Q.** And the “Treatment Failure (TV > 2000 mm^3)” value ([5]; Table 4 study, 4 mg/kg SC)?
**A.** 80%

**Q.** What about the “Complete Response (TV < 10 mm^3)” value ([5]; Table 4 study, 4 mg/kg SC, n = 10) of the same molecule?
**A.** 10%

**Q.** And the “Median Time to Endpoint” value ([5]; Table 4 study, 4 mg/kg SC)?
**A.** 35.0 days

**Q.** What about the “Release of IP-10 in THP-1 cells” value [6] of the same molecule?
**A.** dose-dependent release of IP-10

**Q.** And the half-life at 5 µM [7]?
**A.** > 1 h

**Q.** What about the “Plasma cytokines after IT administration” value [8] of the same molecule?
**A.** increased plasma cytokines IFN-β1, IFN-γ, IL-6, MCP-1, MIP-1α, and TNF-α
